{"source": "PubChem BioAssay AID2060495", "about": "(Molecular Pharmacology Branch, DTP, NCI, 2025);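 also: spheroids exposed to agents for one week before reading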;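 as to viability, T/C: 100% = DMSO vehicle control viability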", "test_system": "521955-158-R2-J5-PDC complex spheroid viability", "test": "Anticancer human tumor 521955-158-R2-J5-PDC patient-derived pancreatic carcinoma cell line growth inhibition [GQUAD]", "details": "for IC50: curve of first compound; for viability, T/C: stronger effect = lower value", "outline": "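Multi-cell-type spheroids of tumor cells with HUVEC and mesenchymal stem cells, treated with drug combinations. Concentrations descend in half-log steps from near clinical Cmax, or from 10 microM where Cmax is unknown; viability read-out.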", "data": [{"smiles": "COc1cccc2c1C(=O)c1c(O)c3c(c(O)c1C2=O)CC(O)(C(=O)CO)CC3OC1CC(N)C(O)C(C)O1", "note": "(configuration not stated) + CN(C)c1ccc(Nc2c3ccc(NC(=O)CCN4CCCC4)cc3nc3cc(NC(=O)CCN4CCCC4)ccc23)cc1", "values": [{"measurement": "IC50", "setting": "second compound 0.0316 µM", "result": 164, "unit": "nM"}, {"measurement": "IC50", "setting": "second compound 0.1 µM", "result": 221, "unit": "nM"}, {"measurement": "IC50", "setting": "second compound 0.316 µM", "result": 208, "unit": "nM"}, {"measurement": "IC50", "setting": "second compound 1 µM", "result": 186, "unit": "nM"}, {"measurement": "IC50", "setting": "second compound 3.16 µM", "result": 176, "unit": "nM"}, {"measurement": "IC50", "setting": "second compound 10 µM", "result": 422, "unit": "nM"}, {"measurement": "viability, T/C", "setting": "second compound 0.0316 µM, first compound 0.0316 µM", "result": 85.5, "unit": "%"}, {"measurement": "viability, T/C", "setting": "second compound 0.0316 µM, first compound 0.1 µM", "result": 56.6, "unit": "%"}, {"measurement": "viability, T/C", "setting": "second compound 0.0316 µM, first compound 0.316 µM", "result": 31.2, "unit": "%"}, {"measurement": "viability, T/C", "setting": "second compound 0.0316 µM, first compound 1 µM", "result": 37.4, "unit": "%"}, {"measurement": "viability, T/C", "setting": "second compound 0.0316 µM, first compound 3.16 µM", "result": 3.76, "unit": "%"}, {"measurement": "viability, T/C", "setting": "second compound 0.0316 µM, first compound 10 µM", "result": 2.73, "unit": "%"}, {"measurement": "viability, T/C", "setting": "second compound 0.1 µM, first compound 0.0316 µM", "result": 97.3, "unit": "%"}, {"measurement": "viability, T/C", "setting": "second compound 0.1 µM, first compound 0.1 µM", "result": 68.8, "unit": "%"}, {"measurement": "viability, T/C", "setting": "second compound 0.1 µM, first compound 0.316 µM", "result": 37.8, "unit": "%"}, {"measurement": "viability, T/C", "setting": "second compound 0.1 µM, first compound 1 µM", "result": 29.9, "unit": "%"}, {"measurement": "viability, T/C", "setting": "second compound 0.1 µM, first compound 3.16 µM", "result": 2.6, "unit": "%"}, {"measurement": "viability, T/C", "setting": "second compound 0.1 µM, first compound 10 µM", "result": 2.75, "unit": "%"}, {"measurement": "viability, T/C", "setting": "second compound 0.316 µM, first compound 0.0316 µM", "result": 101, "unit": "%"}, {"measurement": "viability, T/C", "setting": "second compound 0.316 µM, first compound 0.1 µM", "result": 67.6, "unit": "%"}, {"measurement": "viability, T/C", "setting": "second compound 0.316 µM, first compound 0.316 µM", "result": 34.3, "unit": "%"}, {"measurement": "viability, T/C", "setting": "second compound 0.316 µM, first compound 1 µM", "result": 33.3, "unit": "%"}, {"measurement": "viability, T/C", "setting": "second compound 0.316 µM, first compound 3.16 µM", "result": 1.27, "unit": "%"}, {"measurement": "viability, T/C", "setting": "second compound 0.316 µM, first compound 10 µM", "result": 2.99, "unit": "%"}, {"measurement": "viability, T/C", "setting": "second compound 1 µM, first compound 0.0316 µM", "result": 85.9, "unit": "%"}, {"measurement": "viability, T/C", "setting": "second compound 1 µM, first compound 0.1 µM", "result": 67.9, "unit": "%"}, {"measurement": "viability, T/C", "setting": "second compound 1 µM, first compound 0.316 µM", "result": 29.1, "unit": "%"}, {"measurement": "viability, T/C", "setting": "second compound 1 µM, first compound 1 µM", "result": 30.7, "unit": "%"}, {"measurement": "viability, T/C", "setting": "second compound 1 µM, first compound 3.16 µM", "result": 0.97, "unit": "%"}, {"measurement": "viability, T/C", "setting": "second compound 1 µM, first compound 10 µM", "result": 3, "unit": "%"}, {"measurement": "viability, T/C", "setting": "second compound 3.16 µM, first compound 0.0316 µM", "result": 83, "unit": "%"}, {"measurement": "viability, T/C", "setting": "second compound 3.16 µM, first compound 0.1 µM", "result": 58.2, "unit": "%"}, {"measurement": "viability, T/C", "setting": "second compound 3.16 µM, first compound 0.316 µM", "result": 34.1, "unit": "%"}, {"measurement": "viability, T/C", "setting": "second compound 3.16 µM, first compound 1 µM", "result": 36.5, "unit": "%"}, {"measurement": "viability, T/C", "setting": "second compound 3.16 µM, first compound 3.16 µM", "result": 1.22, "unit": "%"}, {"measurement": "viability, T/C", "setting": "second compound 3.16 µM, first compound 10 µM", "result": 1.89, "unit": "%"}, {"measurement": "viability, T/C", "setting": "second compound 10 µM, first compound 0.0316 µM", "result": 61.9, "unit": "%"}, {"measurement": "viability, T/C", "setting": "second compound 10 µM, first compound 0.1 µM", "result": 61.7, "unit": "%"}, {"measurement": "viability, T/C", "setting": "second compound 10 µM, first compound 0.316 µM", "result": 52.9, "unit": "%"}, {"measurement": "viability, T/C", "setting": "second compound 10 µM, first compound 1 µM", "result": 33.1, "unit": "%"}, {"measurement": "viability, T/C", "setting": "second compound 10 µM, first compound 3.16 µM", "result": 1.41, "unit": "%"}, {"measurement": "viability, T/C", "setting": "second compound 10 µM, first compound 10 µM", "result": 1.9, "unit": "%"}]}]}
